Paper PMC10656490, “Sequence-based prediction of the intrinsic solubility of peptides containing non-natural amino acids” (Nature Communications, 2023)
Like-named read-outs stand apart in the source and are kept apart here. Where a SMILES comes first, the peptide text is derived from it. [ ]: non-standard residue; d: D form. Cha = N[C@@H](CC1CCCCC1)C(=O)O; Cit = NC(=O)NCCC[C@H](N)C(=O)O; Nle = CCCC[C@H](N)C(=O)O; Aib = CC(C)(N)C(=O)O

Assays:
[1] = Ammonium sulphate (AMS) precipitation relative solubility assay (18 A variants); type: physicochemical
Protocol: (§1) Relative solubility was measured using a recently developed PEG precipitation assay. For all PYY variants the standard assay worked well, and no changes had to be implemented (Fig. 2a). […] Moreover, to ensure that the results stemming from the AMS assay are consistent and reliable, we performed the 18 A experiments twice independently on different days. The results confirmed that they are indeed replicable, and we were therefore confident to use them for the validation of our approach (Supplementary Fig. 3). […] Even at final concentrations of 0.33 mg/mL (instead of 1 mg/mL) most variants remained insoluble. We used ultracentrifugation to determine the relative solubilities of the GLP-1 variants (Table 3). To confirm the reliability of this method we replicated the results on a different day with the same stock solutions (Supplementary Fig. 4).
(§2) Aliquots of 1 mg were prepared from the purified and lyophilised stocks. […] Briefly, a precipitant is titrated in increasing concentration to a fixed concentration of protein to induce precipitation of the protein. The samples are incubated for 48 h at 4° after mixing. The samples are centrifuged and the remaining protein concentration is measured in the supernatant using a plate reader. PYY and 18 A variants were dissolved in 10 mM citrate 10 mM phosphate buffer at pH 7 for a final concentration of 3 mg/mL. The assay was run with 50% 6000 PEG for PYY and with 3.8 M AMS for 18 A. To improve throughput, a multichannel robot was employed to measure several peptides at once with the workflow being kept the same as described previously. […] 120 µL of each sample were centrifuged using an OptimaTLX Ultracentrifuge and spinning for 30 min at 500,000 g at 4 °C. The supernatant was removed, and the peptide concentration was measured using a NanoDrop.

[2] = Solubility by ultracentrifugation (GLP-1 variants); type: physicochemical; settings: for solubility: 10 mM citrate 10 mM phosphate buffer, pH 7, GLP-1 variants, 2 mg/mL in 10 mM citrate 10 mM phosphate pH 7, 30 min 500,000 g 4 °C
Protocol: as §1, §2

[3] = 18A variants, precipitation midpoint, second run, Figure S3
[4] = source data Supplementary Fig. 4, GLP-1 variants, 2 stands where Table 3 prints S, in mg/mL

| Compound | PEG1/2 ([1]; 18A variants, Figure 3b) | Second Run [1, 3] | other results |
| --- | --- | --- | --- |
| CC(=O)N[C@@H](CC(=O)O)C(=O)N[C@@H](Cc1c[nH]c2ccccc12)C(=O)N[C@@H](Cc1ccccc1)C(=O)NC(C)(C)C(=O)N[C@@H](C)C(=O)N[C@@H](Cc1ccccc1)C(=O)N[C@@H](Cc1ccc(O)cc1)C(=O)N[C@@H](CC(=O)O)C(=O)N[C@@H](CCCCN)C(=O)N[C@H](C(=O)N[C@@H](C)C(=O)N[C@@H](CCC(=O)O)C(=O)N[C@@H](CCCCN)C(=O)N[C@@H](CC1CCCCC1)C(=O)N[C@@H](CCCCN)C(=O)N[C@@H](CCC(=O)O)C(=O)N[C@@H](C)C(=O)N[C@@H](Cc1ccccc1)C(N)=O)C(C)C [Aib, Cha] (Ac-DWF[Aib]AFYDKVAEK[Cha]KEAF-NH2) | 1.604 | 1.21 |  |
| CC(=O)N[C@@H](CC(=O)O)C(=O)N[C@@H](Cc1c[nH]c2ccccc12)C(=O)N[C@@H](CC1CCCCC1)C(=O)N[C@@H](CCCCN)C(=O)N[C@@H](C)C(=O)N[C@@H](Cc1ccccc1)C(=O)N[C@@H](Cc1ccc(O)cc1)C(=O)N[C@@H](CC(=O)O)C(=O)N[C@@H](CCCCN)C(=O)N[C@H](C(=O)N[C@@H](CC1CCCCC1)C(=O)N[C@@H](CCC(=O)O)C(=O)N[C@@H](CCCCN)C(=O)N[C@@H](Cc1ccccc1)C(=O)N[C@@H](CCCCN)C(=O)N[C@@H](CCC(=O)O)C(=O)N[C@@H](C)C(=O)N[C@@H](Cc1ccccc1)C(N)=O)C(C)C [Cha, Cha] (Ac-DW[Cha]KAFYDKV[Cha]EKFKEAF-NH2) | 0 | 0 |  |
| CCCC[C@H](NC(=O)[C@H](CCC(=O)O)NC(=O)[C@H](CCCCN)NC(=O)[C@H](Cc1ccccc1)NC(=O)[C@H](CCCCN)NC(=O)[C@H](CCC(=O)O)NC(=O)[C@H](C)NC(=O)[C@@H](NC(=O)[C@H](CCCCN)NC(=O)[C@H](CC(=O)O)NC(=O)[C@H](Cc1ccc(O)cc1)NC(=O)[C@H](Cc1ccccc1)NC(=O)[C@H](CC1CCCCC1)NC(=O)[C@H](CCCCN)NC(=O)[C@H](Cc1ccccc1)NC(=O)[C@H](Cc1c[nH]c2ccccc12)NC(=O)[C@H](CC(=O)O)NC(C)=O)C(C)C)C(=O)N[C@@H](Cc1ccccc1)C(N)=O [Cha, Nle] (Ac-DWFK[Cha]FYDKVAEKFKE[Nle]F-NH2) | 0 | 0 |  |
| CCCC[C@H](NC(=O)[C@H](CCC(=O)O)NC(=O)[C@H](C)NC(=O)[C@@H](N)Cc1c[nH]cn1)C(=O)N[C@H](C(=O)N[C@@H](Cc1ccccc1)C(=O)N[C@H](C(=O)N[C@@H](CO)C(=O)N[C@@H](CC(=O)O)C(=O)N[C@H](C(=O)N[C@@H](CO)C(=O)N[C@@H](CO)C(=O)N[C@@H](Cc1ccc(O)cc1)C(=O)N[C@@H](CC(C)C)C(=O)N[C@@H](CCC(=O)O)C(=O)NCC(=O)N[C@@H](CCCNC(N)=O)C(=O)N[C@@H](C)C(=O)N[C@@H](C)C(=O)N[C@@H](CCCCN)C(=O)N[C@@H](CCC(=O)O)C(=O)N[C@@H](Cc1ccccc1)C(=O)N[C@H](C(=O)N[C@@H](C)C(=O)N[C@@H](Cc1c[nH]c2ccccc12)C(=O)N[C@@H](CC(C)C)C(=O)N[C@H](C(=O)N[C@@H](CCCCN)C(=O)NCC(=O)N[C@@H](CCCNC(=N)N)C(N)=O)C(C)C)[C@@H](C)CC)C(C)C)[C@@H](C)O)[C@@H](C)O [Compound 10] (H-HAE[Nle]TFTSDVSSYLEG[Cit]AAKEFIAWLVKGR-NH2; N-terminus assumed) |  |  | solubility ([2]; run 1, read-out: Run 1 solubility (peptide concentration in supernatant)): 150 µg/mL; solubility ([2]; run 2, read-out: Run 2 solubility (peptide concentration in supernatant)): 120 µg/mL; Ultracentrifugation ([2]; GLP1 variants, Figure 3c, in mg/mL): 0.1367; First Run [2, 4]: 0.15; Second Run [2, 4]: 0.1234 |
| CC(=O)N[C@@H](CC(=O)O)C(=O)N[C@@H](Cc1c[nH]c2ccccc12)C(=O)N[C@@H](Cc1ccccc1)C(=O)N[C@@H](CCCCN)C(=O)N[C@@H](C)C(=O)N[C@@H](Cc1ccccc1)C(=O)N[C@@H](Cc1ccc(O)cc1)C(=O)N[C@@H](CC(=O)O)C(=O)N[C@@H](CCCCN)C(=O)N[C@H](C(=O)N[C@@H](C)C(=O)N[C@@H](CCC(=O)O)C(=O)N[C@@H](CCCCN)C(=O)N[C@@H](Cc1ccccc1)C(=O)N[C@@H](CCCCN)C(=O)N[C@@H](CCC(=O)O)C(=O)N[C@@H](C)C(=O)N[C@@H](Cc1ccccc1)C(N)=O)C(C)C [Compound 11, reference compound] (Ac-DWFKAFYDKVAEKFKEAF-NH2) |  |  | PEG1/2 [1]: 1.626; Second Run [1]: 1.058 |
| CCCC[C@H](NC(=O)[C@@H](NC(=O)[C@H](CCCCN)NC(=O)[C@H](CC(=O)O)NC(=O)[C@H](Cc1ccc(O)cc1)NC(=O)[C@H](Cc1ccccc1)NC(=O)[C@H](C)NC(=O)[C@H](CCCCN)NC(=O)[C@H](Cc1ccccc1)NC(=O)[C@H](Cc1c[nH]c2ccccc12)NC(=O)[C@H](CC(=O)O)NC(C)=O)C(C)C)C(=O)N[C@@H](CCC(=O)O)C(=O)N[C@@H](CCCCN)C(=O)N[C@@H](Cc1ccccc1)C(=O)N[C@@H](CCCCN)C(=O)N[C@@H](CCC(=O)O)C(=O)N[C@@H](C)C(=O)N[C@@H](Cc1ccccc1)C(N)=O [Compound 13] (Ac-DWFKAFYDKV[Nle]EKFKEAF-NH2) | 1.618 | 0.923 |  |
| CC(=O)NCCCC[C@H](NC(=O)[C@@H](NC(=O)[C@H](CCCCN)NC(=O)[C@H](CC(=O)O)NC(=O)[C@H](Cc1ccc(O)cc1)NC(=O)[C@H](Cc1ccccc1)NC(=O)[C@H](C)NC(=O)[C@H](CCCCN)NC(=O)[C@H](Cc1ccccc1)NC(=O)[C@H](Cc1c[nH]c2ccccc12)NC(=O)[C@H](CC(=O)O)NC(C)=O)C(C)C)C(=O)N[C@@H](CCC(=O)O)C(=O)N[C@@H](CCCCN)C(=O)N[C@@H](Cc1ccccc1)C(=O)N[C@@H](CCCCN)C(=O)N[C@@H](CCC(=O)O)C(=O)N[C@@H](C)C(=O)N[C@@H](Cc1ccccc1)C(N)=O [Compound 14] (Ac-DWFKAFYDKVK(Ac)EKFKEAF-NH2) | 1.287 | 0.527 |  |
| CC(=O)N[C@@H](CC(=O)O)C(=O)N[C@@H](Cc1c[nH]c2ccccc12)C(=O)N[C@@H](Cc1ccccc1)C(=O)N[C@@H](CCCCN)C(=O)N[C@@H](C)C(=O)N[C@@H](Cc1ccccc1)C(=O)N[C@@H](Cc1ccc(O)cc1)C(=O)N[C@@H](CC(=O)O)C(=O)N[C@@H](CCCCN)C(=O)N[C@H](C(=O)NC(C)(C)C(=O)N[C@@H](CCC(=O)O)C(=O)N[C@@H](CCCCN)C(=O)N[C@@H](Cc1ccccc1)C(=O)N[C@@H](CCCCN)C(=O)N[C@@H](CCC(=O)O)C(=O)N[C@@H](C)C(=O)N[C@@H](Cc1ccccc1)C(N)=O)C(C)C [Compound 15] (Ac-DWFKAFYDKV[Aib]EKFKEAF-NH2) | 1.783 | 1.487 |  |
| CC(=O)N[C@@H](CC(=O)O)C(=O)N[C@@H](Cc1c[nH]c2ccccc12)C(=O)N[C@@H](Cc1ccccc1)C(=O)N[C@@H](CCCCN)C(=O)N[C@@H](C)C(=O)N[C@@H](Cc1ccccc1)C(=O)N[C@@H](Cc1ccc(O)cc1)C(=O)N[C@@H](CC(=O)O)C(=O)N[C@@H](CCCCN)C(=O)N[C@H](C(=O)N[C@@H](CCCNC(N)=O)C(=O)N[C@@H](CCC(=O)O)C(=O)N[C@@H](CCCCN)C(=O)N[C@@H](Cc1ccccc1)C(=O)N[C@@H](CCCCN)C(=O)N[C@@H](CCC(=O)O)C(=O)N[C@@H](C)C(=O)N[C@@H](Cc1ccccc1)C(N)=O)C(C)C [Compound 16] (Ac-DWFKAFYDKV[Cit]EKFKEAF-NH2) | 1.901 | 1.251 |  |
| CC(=O)N[C@@H](CC(=O)O)C(=O)N[C@@H](Cc1c[nH]c2ccccc12)C(=O)N[C@@H](CC1CCCCC1)C(=O)N[C@@H](CCCCN)C(=O)N[C@@H](C)C(=O)N[C@@H](Cc1ccccc1)C(=O)N[C@@H](Cc1ccc(O)cc1)C(=O)N[C@@H](CC(=O)O)C(=O)N[C@@H](CCCCN)C(=O)N[C@H](C(=O)N[C@@H](CC1CCCCC1)C(=O)N[C@@H](CCC(=O)O)C(=O)N[C@@H](CCCCN)C(=O)N[C@@H](Cc1ccccc1)C(=O)N[C@@H](CCCCN)C(=O)N[C@@H](CCC(=O)O)C(=O)N[C@@H](C)C(=O)N[C@@H](Cc1ccccc1)C(N)=O)C(C)C [Compound 17, [ntDAC]W[CHA]KAFYDKV[CHA]EKFKEA[ctFAD]] (Ac-DW[Cha]KAFYDKV[Cha]EKFKEAF-NH2) |  |  | solubility of 18 A variants (in words) ([1]; 18 A variants, pH 7): completely insoluble |
| HAEGTFTS[CHA]VSSYLEGQAAK[NAC]FIAWLVKGR [Compound 9] |  |  | First Run [2]: 0; Second Run [2]: 0; Ultracentrifugation [2]: 0 |
